Data as given in patent publication US9504669B2, “Spliceostatin analogs and methods for their preparation” (PFIZER INC., priority 2012, dated 2016).

Legend:
[1] = system: N87 (gastric cancer) cells; assay: In vitro cell assay (MTS cell viability), N87; type: cell-based; details: 96 h, free compounds (natural products and synthetic analogs); cell viability 96 hours after treatment
Experimental: (§1) Target expressing (BT474 (breast cancer), N87 (gastric cancer), HCC1954 (breast cancer), MDA-MB-361-DYT2 (breast cancer)) or non-expressing (MDA-MB-468) cells were seeded in 96-well cell culture plates for 24 hours before treatment. Cells were treated with 3-fold serially diluted antibody-drug conjugates or free compounds (i.e., no antibody conjugated to the drug) in duplicate at 10 concentrations. Cell viability was determined by CellTiter 96® AQueous One Solution Cell Proliferation MTS Assay (Promega, Madison Wis.) 96 hours after treatment. Relative cell viability was determined as percentage of untreated control. IC50 values were calculated using a four parameter logistic model #203 with XLfit v4.2 (IDBS, Guildford, Surry, UK). The potency ranged upward from 0.0002 nm. Similar procedures and techniques were employed.

[2] = system: MDA-MB-361-DYT2 (breast cancer) cells; assay: In vitro cell assay (MTS cell viability), MDA-MB-361-DYT2; type: cell-based; details: 96 h, free compounds (natural products and synthetic analogs); cell viability 96 hours after treatment
Experimental: as §1

`CC(=O)O[C@@H](C)/C=C\C(=O)N[C@@H]1C[C@H](C)[C@H](C/C=C(C)/C=C/[C@H]2O[C@H](CC(=O)N[C@H]3C[C@@H](O)C3)C[C@@]3(CO3)[C@@H]2O)O[C@@H]1C` [#B142, (2S,3Z)-5-{[(2R,3R,5S,6S)-6-{(2E,4E)-5-[(3R,4R,5R,7S)-4-hydroxy-7-{2-[(cis-3-hydroxycyclobutyl)amino]-2-oxoethyl}-1,6-dioxaspiro[2.5]oct-5-yl]-3-methylpenta-2,4-dien-1-yl}-2,5-dimethyltetrahydro-2H-pyran-3-yl]amino}-5-oxopent-3-en-2-yl acetate] gave an IC50 [1] of 11.2 nM and an IC50 [2] of 55.5 nM.

Compound `CNNC(=O)C[C@@H]1C[C@@]2(CO2)[C@H](O)[C@@H](/C=C/C(C)=C/C[C@@H]2O[C@H](C)[C@H](NC(=O)/C=C\[C@H](C)OC(C)=O)C[C@@H]2C)O1` [#B143, (2S,3Z)-5-({(2R,3R,5S,6S)-6-[(2E,4E)-5-{(3R,4R,5R,7S)-4-hydroxy-7-[2-(2-methylhydrazinyl)-2-oxoethyl]-1,6-dioxaspiro[2.5]oct-5-yl}-3-methylpenta-2,4-dien-1-yl]-2,5-dimethyltetrahydro-2H-pyran-3-yl}amino)-5-oxopent-3-en-2-yl acetate] has an IC50 [1] of 2.43 nM and an IC50 [2] of 9.51 nM.

`CC(=O)O[C@@H](C)/C=C\C(=O)N[C@@H]1C[C@H](C)[C@H](C/C=C(C)/C=C/[C@H]2O[C@H](CC(=O)N(C)N)C[C@@]3(CO3)[C@@H]2O)O[C@@H]1C` [#B144, (2S,3Z)-5-({(2R,3R,5S,6S)-6-[(2E,4E)-5-{(3R,4R,5R,7S)-4-hydroxy-7-[2-(1-methylhydrazinyl)-2-oxoethyl]-1,6-dioxaspiro[2.5]oct-5-yl}-3-methylpenta-2,4-dien-1-yl]-2,5-dimethyltetrahydro-2H-pyran-3-yl}amino)-5-oxopent-3-en-2-yl acetate] was tested, and the IC50 [1] was 0.982 nM and the IC50 [2] was 6.1 nM.

For `CNN(C)C(=O)C[C@@H]1C[C@@]2(CO2)[C@H](O)[C@@H](/C=C/C(C)=C/C[C@@H]2O[C@H](C)[C@H](NC(=O)/C=C\[C@H](C)OC(C)=O)C[C@@H]2C)O1` [#B145, (2S,3Z)-5-({(2R,3R,5S,6S)-6-[(2E,4E)-5-{(3R,4R,5R,7S)-7-[2-(1,2-dimethylhydrazinyl)-2-oxoethyl]-4-hydroxy-1,6-dioxaspiro[2.5]oct-5-yl}-3-methylpenta-2,4-dien-1-yl]-2,5-dimethyltetrahydro-2H-pyran-3-yl}amino)-5-oxopent-3-en-2-yl acetate], the IC50 [1] was 0.408 nM and the IC50 [2] was 2.03 nM.

`COC(=O)C[C@@H]1C[C@@]2(CO2)C[C@@H](/C=C/C(C)=C/C[C@@H]2O[C@H](C)[C@H](NC(=O)/C=C\[C@H](C)OC(=O)CCCSC)C[C@@H]2C)O1` [#B149, (2S,3Z)-5-{[(2R,3R,5S,6S)-6-{(2E,4E)-5-[(3S,5S,7S)-7-(2-methoxy-2-oxoethyl)-1,6-dioxaspiro[2.5]oct-5-yl]-3-methylpenta-2,4-dien-1-yl}-2,5-dimethyltetrahydro-2H-pyran-3-yl]amino}-5-oxopent-3-en-2-yl 4-(methylsulfanyl)butanoate] was tested, and the IC50 [1] was over 100 nM and the IC50 [2] was over 100 nM.

With `CC(=O)O[C@@H](C)/C=C\C(=O)N[C@@H]1C[C@H](C)[C@H](C/C=C(C)/C=C/[C@H]2O[C@H](CC(=O)NN(C)C)C[C@@]3(CO3)[C@@H]2O)O[C@@H]1C` [#B177, (2S,3Z)-5-({(2R,3R,5S,6S)-6-[(2E,4E)-5-{(3R,4R,5R,7S)-7-[2-(2,2-dimethylhydrazinyl)-2-oxoethyl]-4-hydroxy-1,6-dioxaspiro[2.5]oct-5-yl}-3-methylpenta-2,4-dien-1-yl]-2,5-dimethyltetrahydro-2H-pyran-3-yl}amino)-5-oxopent-3-en-2-yl acetate] the IC50 [1] was 1.61 nM and the IC50 [2] was 5.65 nM.

For `CC(=O)O[C@@H](C)/C=C\C(=O)N[C@@H]1C[C@H](C)[C@H](C/C=C(C)/C=C/[C@H]2O[C@H](CC(=O)N3CCCCN3)C[C@@]3(CO3)[C@@H]2O)O[C@@H]1C` [#B179, (2S,3Z)-5-({(2R,3R,5S,6S)-6-[(2E,4E)-5-{(3R,4R,5R,7S)-4-hydroxy-7-[2-oxo-2-(tetrahydropyridazin-1(2H)-yl)ethyl]-1,6-dioxaspiro[2.5]oct-5-yl}-3-methylpenta-2,4-dien-1-yl]-2,5-dimethyltetrahydro-2H-pyran-3-yl}amino)-5-oxopent-3-en-2-yl acetate], the IC50 [1] was 0.299 nM and the IC50 [2] was 1.29 nM.

`CC(/C=C/[C@H]1O[C@H](CC(=O)NN)C[C@@]2(CO2)[C@@H]1O)=C\C[C@@H]1O[C@H](C)[C@H](NC(=O)/C=C\[C@H](C)O)C[C@@H]1C` [#B209, (2Z,4S)—N-[(2R,3R,5S,6S)-6-{(2E,4E)-5-[(3R,4R,5R,7S)-7-(2-hydrazinyl-2-oxoethyl)-4-hydroxy-1,6-dioxaspiro[2.5]oct-5-yl]-3-methylpenta-2,4-dien-1-yl}-2,5-dimethyltetrahydro-2H-pyran-3-yl]-4-hydroxypent-2-enamide] was tested, and the IC50 [1] was 60.6 nM and the IC50 [2] was over 100 nM.

Work on `COC(=O)C[C@@H]1C[C@@]2(CO2)[C@H](O)[C@@H](/C=C/C(C)=C/C[C@@H]2O[C@H](C)[C@H](NC(=O)/C=C\[C@H](C)OC)C[C@@H]2C)O1` [#B229, methyl [(3R,5S,7R,8R)-8-hydroxy-7-{(1E,3E)-5-[(2S,3S,5R,6R)-5-{[(2Z,4S)-4-methoxypent-2-enoyl]amino}-3,6-dimethyltetrahydro-2H-pyran-2-yl]-3-methylpenta-1,3-dien-1-yl}-1,6-dioxaspiro[2.5]oct-5-yl]acetate] yielded an IC50 [1] of 3.6 nM and an IC50 [2] of 9.14 nM.

`COC(=O)C[C@@H]1C[C@@]2(CO2)[C@H](O)[C@@H](/C=C/C(C)=C/C[C@@H]2O[C@H](C)[C@H](NC(=O)/C=C\[C@H](C)O)C[C@@H]2C)O1` [#B235, methyl [(3R,5S,7R,8R)-8-hydroxy-7-{(1E,3E)-5-[(2S,3S,5R,6R)-5-{[(2Z,4S)-4-hydroxypent-2-enoyl]amino}-3,6-dimethyltetrahydro-2H-pyran-2-yl]-3-methylpenta-1,3-dien-1-yl}-1,6-dioxaspiro[2.5]oct-5-yl]acetate] showed an IC50 [1] of 16.4 nM and an IC50 [2] of 36.8 nM.

`COC(=O)C[C@@H]1C[C@@]2(CO2)[C@H](OC)[C@@H](/C=C/C(C)=C/C[C@@H]2O[C@H](C)[C@H](NC(=O)/C=C\[C@H](C)OC)C[C@@H]2C)O1` [#B240, methyl [(3R,5S,7R,8R)-8-methoxy-7-{(1E,3E)-5-[(2S,3S,5R,6R)-5-{[(2Z,4S)-4-methoxypent-2-enoyl]amino}-3,6-dimethyltetrahydro-2H-pyran-2-yl]-3-methylpenta-1,3-dien-1-yl}-1,6-dioxaspiro[2.5]oct-5-yl]acetate] gave an IC50 [1] of 9.79 nM and an IC50 [2] of 5.05 nM.

`CC(=O)O[C@@H](C)/C=C\C(=O)N[C@@H]1C[C@H](C)[C@H](C/C=C(C)/C=C/[C@H]2O[C@H](CNC(N)=O)C[C@@]3(CO3)[C@@H]2O)O[C@@H]1C` [#B241, (2S,3Z)-5-({(2R,3R,5S,6S)-6-[(2E,4E)-5-{(3R,4R,5R,7S)-7-[(carbamoylamino)methyl]-4-hydroxy-1,6-dioxaspiro[2.5]oct-5-yl}-3-methylpenta-2,4-dien-1-yl]-2,5-dimethyltetrahydro-2H-pyran-3-yl}amino)-5-oxopent-3-en-2-yl acetate] showed an IC50 [1] of 21.3 nM and an IC50 [2] of 43.6 nM.
